Data published in paper PMC10762068, “Selective blockade of Cav1.2 (α1C) versus Cav1.3 (α1D) L-type calcium channels by the black mamba toxin calciseptine” (Nature Communications, 2024).
Positions of bridges follow the written chain, without caps; N, C: chain ends. No end group written: not given here.

Columns and labels:
[1] = tested on: ICav1.2 in SAN myocytes from Cav1.3^−/− mice; assay: ICaL, patch clamp, SAN myocytes from Cav1.3-/- mice; format: cell-based, mouse; settings: for degree of inhibition of ICav1.2 / percentage of ICaL block: step 0 mV, mean ± SEM; for degree of inhibition of ICav1.2: n=6/N=2; for percentage of ICaL block: n=7/N=2; for L-type Ca2+ current density: Cas 1 µM alone or + Nife 3 µM, n=8
Method: (§1) Hearts from Wild-Type and Cav1.3^−/− mice were removed under general anesthesia consisting of 0.01 mg/g xylazine (2% Rompun; Bayer AG) and 0.1 mg/g ketamine (Imalgène;Merial) and immersed in a pre-warmed (36 °C) Tyrode solution containing (mM): 140 NaCl, 5.4 KCl, 1 MgCl2, 1.8 CaCl2, 5.5 D-glucose, and 5 Hepes (adjusted to pH 7.4 with NaOH). […] SAN tissue was excised and transferred into a low-Ca^2+ solution containing (mM): 140 NaCl, 5.4 KCl, 0.5 MgCl2, 0.2 CaCl2, 1.2 KH2PO4, 50 taurine, 5.5 D-glucose, 1 mg/mL BSA, and 5 Hepes–NaOH (adjusted to pH 6.9 with NaOH) for 5 min. Then, enzymatic digestion was carried out for 20-25 min at 36 °C in the low-Ca^2+ solution containing LiberaseTH Research Grade (0.15 mg/mL; Roche, Mannheim, Germany) and elastase (0.5 mg/mL; Worthington, Lakewood, NJ, USA). Digestion was stopped by washing the SAN in a “Kraftbrühe” (KB) medium containing (mM) 100 K-glutamate, 10 K-aspartate, 25 KCl, 10 KH2PO4, 2 MgSO4, 20 taurine, 5 creatine, 0.5 EGTA, 20 D-glucose, 5 Hepes, and 1 mg/mL BSA (adjusted to pH 7.2 with KOH). Single SAN cells were then dissociated from the SAN tissue by manual agitation using a flame-forged Pasteur’s pipette. To recover the automaticity of the SAN cells, Ca^2+ was gradually reintroduced in the cell’s storage solution to a final concentration of 1.8 mM. SAN cells were then left to rest for 1 h before recordings.
(§2) For patch-clamp recordings of SAN myocytes, cells were harvested in custom-made chambers with glass bottoms for cell attachment. Cells were then super-fused with Tyrode’s solution warmed at 36 °C before recording. Action potentials and ionic currents were recorded using an Axon multi-clamp patch-clamp 700B amplifier. Voltage-gated L-type Ca^2+ currents (ICaL) were recorded using standard whole cell patch-clamp configuration. For recording ICaL, we used an extracellular recording solution contained (mM): 135 tetraethylammonium chloride (TEA-Cl), 10 4-aminopyridine (4-AP), 1 MgCl2, 0.03 tetrodotoxin (TTX), 1 g/L Glucose, 2 CaCl2, 10 Hepes, (adjusted to pH = 7.2 with TEAOH). […] Pacemaker activity was recorded by the perforated patch-clamp technique using escin (40 µg/ml). For recording cell automaticity glass pipettes were filled with the intracellular solution contained (mM): 80 K-Aspartate, 50 KCl, 1 MgCl2, 5 HEPES, 2 CaCl2, 5 EGTA, 3 ATP-Na+ salt; pH was adjusted to 7.2 with KOH. Escin was dissolved in sterile H2O and added to the intracellular solution right before each experiment.
(§3) In all experiments of cellular electrophysiology, we employed synthetized analog of Cas, commercially available at Latoxan (ID: L8109). The native peptide was purified from the venom of Dendroaspis polylepis purchased from Latoxan, as previoulsly described. The pure peptide was obtained after gel filtration, cation exchange and C18 reversed phase chromatography. Its measured molecular mass (7036.26 Da average) was in accordance with the mass calculated from sequence data (7036.22 Da).

[2] = tested on: N-type Ca^2+ channel; settings: cited from earlier work
Description: (§4) Animal venoms constitute an immense reservoir for identification of new toxins and toxin-derived tools for modulating the physiological function of ion channels. In particular, toxins showing three-fingers molecular scaffold class include several cardiotoxic peptides that abound in snake venoms. Three fingers toxin peptides potently block a variety of proteins including nicotinic receptors, acetylcholinesterase, acid-sensitive ion channels (ASIC)[14], as well as cytotoxins that disrupt the lipid membrane. More than 30 years ago, M. Lazdunski ‘s group purified a 60-amino acid three- ...

[3] = tested on: T-type Ca^2+ channel; settings: cited from earlier work
Description: as §4

[4] = tested on: voltage sensitive Na^+ channels; settings: cardiac ventricular cells, NlE115 neuroblastoma cells, RINmSF and HIT insulinomas, chicken dorsal root ganglia; cited from earlier work
Description: as §4

[5] = tested on: skeletal muscle (Cav1.1) L-type Ca^2+ channel; settings: cited from earlier work
Description: as §4

[6] = tested on: voltage sensitive K^+ channels; settings: cardiac ventricular cells, NlE115 neuroblastoma cells, RINmSF and HIT insulinomas, chicken dorsal root ganglia; cited from earlier work
Description: as §4

[7] = tested on: cardiac contractions; settings: cited from earlier work
Description: as §4

[8] = tested on: portal vein, thoracic aorta and uterine smooth muscle; settings: cited from earlier work
Description: as §4

[9] = tested on: SAN myocytes from Wild-Type mice; assay: Spontaneous action potentials, perforated patch-clamp, SAN pacemaker myocytes; format: cell-based, mouse; settings: for action potential duration APD30: 30% repolarization; for action potential duration APD30 / action potential duration APD50 / action potential duration APD70 / action potential duration APD90 / slope of linear part of diastolic depolarization (SLDD) / slope of exponential part of diastolic depolarization (SEDD) / action potential amplitude (APA) / action potential rate: mean ± SEM; for action potential duration APD50: 50% repolarization; for action potential duration APD70: 70% repolarization; for action potential duration APD90: 90% repolarization
Method: as §1, §2
We used an extracellular recording solution (Tyrode’s based) contained (mM): 140 NaCl, 5.4 KCl, 1 MgCl2, 1.8 CaCl2, 5 HEPES, 5.5 D-Glucose; pH was set to 7.4 with NaOH. AP parameters have been calculated as reported in Baudot et al.[10]. Data were analyzed using pCLAMP9 (Molecular Devices) and GraphPad Prism (GraphPad) software.
as §3

[10] = Cas 300 nM alone (n=9/N=4) or + Nife 3 µM (n=8/N=4)
[11] = Cas 1 µM alone (n=12/N=3) or + Nife 3 µM (n=9/N=3)

RICYIHKASLPRATKTCVENTCYKMFIRTQREYISERGCGCPTAMWPYQTECCKGDRCNK (disulfide 3-22, 17-39, 41-52, 53-58 (inferred)) [Cas, calciseptine]
degree of inhibition of ICav1.2 ([1]; Cas 300 nM, 0.2 Hz, holding −60 mV): 62 ± 6% | degree of inhibition of ICav1.2 ([1]; Cas 300 nM, 1 Hz, holding −60 mV): 63 ± 6% | degree of inhibition of ICav1.2 ([1]; Cas 300 nM, 5 Hz, holding −60 mV): 58 ± 8% | voltage- or use-dependence of ICav1.2 inhibition ([1]; Cas 300 nM, holding −40 / −60 mV, 0.2, 1, 5 Hz): not voltage- or use-dependent | percentage of ICaL block ([1]; Cas 300 nM, holding −40 mV): 68 ± 3% | percentage of ICaL block ([1]; Cas 300 nM, holding −60 mV): 67 ± 4% | L-type Ca2+ current density ([1]; 0 mV, Ctrl -4.14± 0.56): -0.45± 0.14 pA/pF | L-type Ca2+ current density ([1]; +10 mV, Ctrl -4.69± 0.57): -0.17± 0.14 pA/pF | L-type Ca2+ current density ([1]; +20 mV, Ctrl -3.93± 0.56): -0.13± 0.21 pA/pF | L-type Ca2+ current density ([1]; +40 mV, Ctrl -1.15± 0.37): 0.37± 0.29 pA/pF | L-type Ca2+ current density ([1]; -10 mV, Ctrl -2.49± 0.39): -0.17± 0.07 pA/pF | L-type Ca2+ current density ([1]; -20 mV, Ctrl -1.16± 0.20): -0.08± 0.03 pA/pF | L-type Ca2+ current density ([1]; -25 mV, Ctrl -0.97± 0.21): -0.25± 0.13 pA/pF | block of ICaL ([1]; Cas 1 µM, holding −55 mV, n=8/N=2): totally blocked ICaL | residual ICaL after Cas ([1]; Cav1.3^−/− SAN myocytes after Cas perfusion): No residual ICaL was recorded | effect on N-type Ca2+ channel [2]: without affecting | effect on T-type Ca2+ channel [3]: without affecting | effect on voltage sensitive Na+ channels [4]: does not affect | effect on skeletal muscle (Cav1.1) L-type Ca2+ channel [5]: without affecting | effect on voltage sensitive K+ channels [6]: does not affect | effect on cardiac contractions [7]: completely eliminate cardiac contractions | effect on smooth muscle contraction [8]: abolish all contraction | effect on AP duration ([9]; Cas 300 nM): did not affect AP duration | action potential duration APD30 [9, 10]: 28 ± 2 ms | action potential duration APD50 [9, 10]: 46 ± 4 ms | action potential duration APD70 [9, 10]: 66 ± 6 ms | action potential duration APD90 [9, 10]: 98 ± 8 ms | slope of linear part of diastolic depolarization (SLDD) ([9]; Cas 300 nM alone (n=9/N=4) or + Nife 3 µM (n=8/N=4), Ctrl 0.06 ± 0.01): ^$0.05 ± 0.01^p=0.0128 mV/ms | slope of exponential part of diastolic depolarization (SEDD) ([9]; Cas 300 nM alone (n=9/N=4) or + Nife 3 µM (n=8/N=4), Ctrl 0.51 ± 0.09): ^$0.40 ± 0.04^p=0.0078 mV/ms | action potential amplitude (APA) ([9]; Cas 300 nM alone (n=9/N=4) or + Nife 3 µM (n=8/N=4), Ctrl 83 ± 2): 75 ± 3 mV | action potential rate ([9]; Cas 300 nM alone (n=9/N=4) or + Nife 3 µM (n=8/N=4), Ctrl 200 ± 21): ^$194 ± 19^p=0.0004 bpm | effect on AP amplitude ([9]; Cas 300 nM and 1 µM): reduced AP amplitude | effect on AP firing rate ([9]; Cas 300 nM and 1 µM): did not affect AP firing rate | effect on maximum diastolic potential, threshold potential and upstroke velocity ([9]; Cas 300 nM or 1 µM): did not observe statistically significant differences | effect on slopes of linear and exponential diastolic depolarization ([9]; Cas 300 nM or 1 µM): did not change | effect on AP duration at 30% and 50% of repolarization ([9]; Cas 1 µM): had statistically significant effect | action potential duration APD30 [9, 11]: 25 ± 2 ms | action potential duration APD50 [9, 11]: 43 ± 3 ms | action potential duration APD70 [9, 11]: 61 ± 3 ms | action potential duration APD90 [9, 11]: 87 ± 4 ms | slope of linear part of diastolic depolarization (SLDD) ([9]; Cas 1 µM alone (n=12/N=3) or + Nife 3 µM (n=10/N=3), Ctrl 0.07 ± 0.01): ^$0.06 ± 0.01^p=0.0187 mV/ms | slope of exponential part of diastolic depolarization (SEDD) ([9]; Cas 1 µM alone (n=12/N=3) or + Nife 3 µM (n=10/N=3), Ctrl 0.48 ± 0.06): ^$0.50 ± 0.06^p=0.0002 mV/ms | action potential amplitude (APA) ([9]; Cas 1 µM alone (n=12/N=3) or + Nife 3 µM (n=10/N=3), Ctrl 91 ± 2): 85 ± 3 mV | action potential rate ([9]; Cas 1 µM alone (n=12/N=3) or + Nife 3 µM (n=10/N=3), Ctrl 218 ± 15): ^$213 ± 15^p<0.0001 bpm
